From patent US20240246937A1 (MERCK SHARP & DOHME LLC, priority 2021, published 2024)

Target: recombinant IL4I1 (Homo sapiens (Human), UniProt Q96RQ9)
Assay: IL4I1 Enzymatic Assay (Amplex Red/HRP coupled fluorescence detection of H2O2)
Format: biochemical
Settings: 240 min; recombinant IL4I1, four-hour pre-incubation with compound
Protocol: Interleukin 4 inducible protein 1 (IL4I1) is an L-amino oxidase that catalyzes the oxidation of aromatic residues (Phe, Trp and Tyr): L-amino acid+H2O+O2→2-oxo acid+NH3+H2O2. Equal molar of H2O2 and the corresponding alpha-ketoacid are produced when IL4I1 and substrate are added. In this assay, the hydrogen peroxide generated by IL4I1 is then detected through a coupled reaction with Amplex® Red (10-acetyl-3,7-dihydroxyphenoxazine) and horseradish peroxidase (HRP) to produce resorufin product that could be detected in the form of fluorescence signals. The assessment of the inhibitory effect of small molecules (EC50) on IL4I1 is measured by the effectiveness of the compounds to inhibit the production of H2O2.
Using this assay, the potency (EC50) of each compound was determined from a ten-point (1:3 serial dilution) titration curve using the following outlined procedure. To each well of a black flat-bottom Greiner (Cat #781076) 384 well-plate, 25 nL of compound (0.1% DMSO in final assay volume of 25 μL) was dispensed, followed by the addition of 12.5 μL of 1× assay buffer (50 mM Hepes 7.0 and 0.005% Tween20 (Sigma, Cat #P8341; low peroxide grade)) containing 2 nM of recombinant IL4I1 (R&D Systems, Cat #5684-AO-020). Plates were placed in an ambient temperature humidified chamber for a four-hour pre-incubation with compound. Subsequently, each reaction was initiated by the addition of 12.5 μL 1× assay buffer containing 2 mM of each aromatic amino acids (Phe/Tyr/Trp), 0.1 mM Amplex Red and 2 U/mL of HRP. The final reaction in each well of 25 μL consisted of 1 nM of IL4I1, 1 mM of each residues (Phe, Tyr and Trp), 0.05 mM Amplex Red and 1 U/mL of HRP. It should be noted that the concentrations of Amplex Red and HRP used here were in excess such that the conversion of H2O2 to resorufin product occurred instantaneously and was non-rate limiting. Reactions were allowed to proceed for 120 minutes followed by fluorescence readout on a Spectramax with the following set parameters: 544 nm excitation/590 nm emission, 570 nm cutoff (EnVision is an alternative reader). Dose-response curves were generated by plotting percent effect (% product conversion; Y-axis) vs. Log10 compound concentrations (X-axis). EC50 values were calculated using a non-linear regression, four-parameters sigmoidal dose-response model and are shown in Potency Table 1.

recombinant IL4I1, sequence (Q96RQ9 22-567): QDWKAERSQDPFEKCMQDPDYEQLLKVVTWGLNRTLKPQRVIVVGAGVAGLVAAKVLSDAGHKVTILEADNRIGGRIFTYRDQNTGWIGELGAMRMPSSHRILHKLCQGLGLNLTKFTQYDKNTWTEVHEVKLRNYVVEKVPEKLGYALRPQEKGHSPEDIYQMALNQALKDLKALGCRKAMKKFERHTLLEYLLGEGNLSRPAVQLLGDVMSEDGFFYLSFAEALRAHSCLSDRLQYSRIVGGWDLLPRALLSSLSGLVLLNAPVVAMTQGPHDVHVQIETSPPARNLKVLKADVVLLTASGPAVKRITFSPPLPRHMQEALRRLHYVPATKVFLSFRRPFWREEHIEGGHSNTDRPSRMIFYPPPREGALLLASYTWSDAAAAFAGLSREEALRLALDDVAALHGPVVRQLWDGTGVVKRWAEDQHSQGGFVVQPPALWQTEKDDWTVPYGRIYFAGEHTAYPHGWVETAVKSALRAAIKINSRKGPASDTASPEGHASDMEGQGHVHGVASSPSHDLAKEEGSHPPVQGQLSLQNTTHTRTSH

EC50	Compound
12 nM	CC(c1ccc(-c2ccccc2)nc1)N1CCN(C2CCCC2)C(=O)C1=O (single isomer, unassigned) [Example 99, (R or S)-1-cyclopentyl-4-(1-(6-phenylpyridin-3-yl)ethyl)piperazine-2,3-dione]
22 nM	CC(c1ncc(-c2ccccc2)cn1)N1CCN(C2CCCC2)C(=O)C1=O (single isomer, unassigned) [Example 133, (R or S)-1-cyclopentyl-4-(1-(5-phenylpyrimidin-2-yl)ethyl)piperazine-2,3-dione]
40 nM	CC(c1ncc(-c2ccccc2)cn1)N1CCN(C2CCC2)C(=O)C1=O (single isomer, unassigned) [Example 134, (R or S)-1-cyclobutyl-4-(1-(5-phenylpyrimidin-2-yl)ethyl)piperazine-2,3-dione]
97 nM	O=C1C(=O)N2CCCCC2CN1Cc1nnc(-c2ccccc2)s1 (single isomer, unassigned) [Example 180, (R or S)-2-((5-phenyl-1,3,4-thiadiazol-2-yl)methyl)hexahydro-2H-pyrido[1,2-a]pyrazine-3,4-dione]
14 nM	O=C1C(=O)N2CCCCC2CN1Cc1nnc(-c2ccccc2)s1 (single isomer, unassigned) [Example 182, (R or S)-2-((5-phenyl-1,3,4-thiadiazol-2-yl)methyl)hexahydro-2H-pyrido[1,2-a]pyrazine-3,4-dione]
19 nM	CC1CN(Cc2ncc(-c3ccccc3)cn2)C(=O)C(=O)N1C1CCCC1 (single isomer, unassigned) [Example 341, (R or S)-4-cyclopentyl-5-methyl-1-((5-phenylpyrimidin-2-yl)methyl)piperazine-2,3-dione]
49 nM	CC1CCC(N2CCN(Cc3ncc(-c4ccccc4)cn3)C(=O)C2=O)C1 (single isomer, unassigned) [Example 344, (R or S, R or S)-1-(3-methylcyclopentyl)-4-((5-phenylpyrimidin-2-yl)methyl)piperazine-2,3-dione]
85 nM	O=C1C(=O)N(C2CCC2)[C@H]2CCC[C@@H]2N1Cc1ccc(-c2ccccc2)nn1 (single isomer, unassigned) [Example 435A, (S,S or R,R)-1-cyclobutyl-4-((6-phenylpyridazin-3-yl)methyl)hexahydro-1H-cyclopenta[b]pyrazine-2,3-dione]
76 nM	O=C1C(=O)N(C2CCC2)C2CCCC2N1Cc1ccc(-c2ccccc2)nn1 (single isomer, unassigned) [Example 435B, (S,R or S,R)-1-cyclobutyl-4-((6-phenylpyridazin-3-yl)methyl)hexahydro-1H-cyclopenta[b]pyrazine-2,3-dione]
34 nM	CC1CN(C2CCC2)C(=O)C(=O)N1Cc1nnc(-c2ccccc2)s1 (single isomer, unassigned) [Example 437, (R or S)-1-cyclobutyl-5-methyl-4-((5-phenyl-1,3,4-thiadiazol-2-yl)methyl)piperazine-2,3-dione]
40 nM	O=C1C(=O)N(C2CC[C@H](O)C2)CCN1Cc1nnc(-c2ccccc2)s1 (single isomer, unassigned) [Example 438, (R,S or S,R)-1-(3-hydroxycyclopentyl)-4-((5-phenyl-1,3,4-thiadiazol-2-yl)methyl)piperazine-2,3-dione]
5 nM	O=C1C(=O)N([C@@H]2CC[C@@H](c3ccccc3)C2)CCN1Cc1nnc(-c2ccccc2)s1 (single isomer, unassigned) [Example 440A, (R or S, R or S)-1-((5-phenyl-1,3,4-thiadiazol-2-yl)methyl)-4-(3-phenylcyclopentyl)piperazine-2,3-dione]
6 nM	O=C1C(=O)N([C@@H]2CC[C@@H](c3ccccc3)C2)CCN1Cc1nnc(-c2ccccc2)s1 (single isomer, unassigned) [Example 440B, (R or S, R or S)-1-((5-phenyl-1,3,4-thiadiazol-2-yl)methyl)-4-(3-phenylcyclopentyl)piperazine-2,3-dione]
10 nM	O=C1C(=O)N([C@@H]2CC[C@@H](c3ccccc3)C2)CCN1Cc1nnc(-c2ccccc2)s1 (single isomer, unassigned) [Example 440C, (R or S, R or S)-1-((5-phenyl-1,3,4-thiadiazol-2-yl)methyl)-4-(3-phenylcyclopentyl)piperazine-2,3-dione]
8 nM	O=C1C(=O)N([C@@H]2CC[C@@H](c3ccccc3)C2)CCN1Cc1nnc(-c2ccccc2)s1 (single isomer, unassigned) [Example 440D, (R or S, R or S)-1-((5-phenyl-1,3,4-thiadiazol-2-yl)methyl)-4-(3-phenylcyclopentyl)piperazine-2,3-dione]
10 nM	O=C1C(=O)N(C2CCC2)CCN1Cc1ccc(-c2ccccc2F)nn1 [Example 1, 1-cyclobutyl-4-((6-(2-fluorophenyl)pyridazin-3-yl)methyl)piperazine-2,3-dione]

EC50	Compound
9 nM	O=C1C(=O)N(C23CC(C2)C3)CCN1Cc1nnc(-c2cccc(F)c2)s1 [Example 2, 1-(bicyclo[1.1.1]pentan-1-yl)-4-((5-(3-fluorophenyl)-1,3,4-thiadiazol-2-yl)methyl)piperazine-2,3-dione]
12 nM	O=C1C(=O)N(C2CCCC2)CCN1Cc1ccc(-c2ccccc2)nn1 [Example 3, 1-cyclopentyl-4-((6-phenylpyridazin-3-yl)methyl)piperazine-2,3-dione]
19 nM	O=C1C(=O)N(C2CCCC2)CCN1Cc1ncc(-c2ccccc2)cn1 [Example 4, 1-cyclopentyl-4-((5-phenylpyrimidin-2-yl)methyl)piperazine-2,3-dione]
50 nM	O=C1C(=O)N(C2CCCC2)CCN1Cc1ncc(-c2cncs2)cn1 [Example 5, 1-cyclopentyl-4-((5-(thiazol-5-yl)pyrimidin-2-yl)methyl)piperazine-2,3-dione]
43 nM	O=C1C(=O)N(C2CCCC2)CCN1Cc1ccc(-c2cnco2)nn1 [Example 6, 1-cyclopentyl-4-((6-(oxazol-5-yl)pyridazin-3-yl)methyl)piperazine-2,3-dione]
9 nM	O=C1C(=O)N(C2CC(c3ccccc3)C2)CCN1Cc1ccc(-c2ccccc2)nn1 (centres unmarked) [Example 7, 1-(3-phenylcyclobutyl)-4-((6-phenylpyridazin-3-yl)methyl)piperazine-2,3-dione]
7 nM	O=C1C(=O)N(C2CCCC2)CCN1Cc1nnc(-c2cccc(F)c2)s1 [Example 8, 1-cyclopentyl-4-((5-(3-fluorophenyl)-1,3,4-thiadiazol-2-yl)methyl)piperazine-2,3-dione]
15 nM	O=C1C(=O)N(C2CCCC2)CCN1Cc1ccc(-c2ccccc2F)nn1 [Example 9, 1-cyclopentyl-4-((6-(2-fluorophenyl)pyridazin-3-yl)methyl)piperazine-2,3-dione]
21 nM	O=C1C(=O)N(C2CCCC2)CCN1Cc1ncc(-c2cncs2)cc1F [Example 10, 1-cyclopentyl-4-((3-fluoro-5-(thiazol-5-yl)pyridin-2-yl)methyl)piperazine-2,3-dione]
16 nM	O=C1C(=O)N(C2CCCC2)CCN1Cc1ccc(-c2cncs2)nn1 [Example 11, 1-cyclopentyl-4-((6-(thiazol-5-yl)pyridazin-3-yl)methyl)piperazine-2,3-dione]
8 nM	O=C1C(=O)N(C2CCC2)CCN1Cc1ccc(-c2ccccc2)nn1 [Example 12, 1-cyclobutyl-4-((6-phenylpyridazin-3-yl)methyl)piperazine-2,3-dione]
8 nM	O=C1C(=O)N(C2CCCC2)CCN1Cc1nnc(-c2ccccc2F)s1 [Example 13, 1-cyclopentyl-4-((5-(2-fluorophenyl)-1,3,4-thiadiazol-2-yl)methyl)piperazine-2,3-dione]
6 nM	O=C1C(=O)N(C2CCCC2)CCN1Cc1ccc(-c2cccc(F)c2)nn1 [Example 14, 1-cyclopentyl-4-((6-(3-fluorophenyl)pyridazin-3-yl)methyl)piperazine-2,3-dione]
44 nM	O=C1C(=O)N(C2CCCC2)CCN1Cc1ccc(-c2cn[nH]c2)nn1 [Example 15, 1-((6-(1H-pyrazol-4-yl)pyridazin-3-yl)methyl)-4-cyclopentylpiperazine-2,3-dione]
16 nM	O=C1C(=O)N(C2CCCC2)CCN1Cc1ncc(-c2cn[nH]c2)cc1F [Example 16, 1-cyclopentyl-4-((3-fluoro-5-(1H-pyrazol-4-yl)pyridin-2-yl)methyl)piperazine-2,3-dione]
7 nM	O=C1C(=O)N(C2CCCC2)CCN1Cc1ccc(-c2cncs2)nc1 [Example 17, 1-cyclopentyl-4-((6-(thiazol-5-yl)pyridin-3-yl)methyl)piperazine-2,3-dione]
